Experimental data: article PMC4988470, “Identification of the putative binding pocket of valerenic acid on GABAA receptors using docking studies and site‐directed mutagenesis” (British Journal of Pharmacology, 2015)

How the values were obtained:
GABAA receptors = system: GABAA receptors; parameters: method as in Khom et al., 2007; details: high concentrations; ref Khom et al., 2007; cited from earlier work
β1‐containing channels = system: β1‐containing channels; parameters: method as in Khom et al., 2007; details: ref Khom et al., 2007; cited from earlier work
[1] = biological target: α1β3F289Sγ2S GABAA receptor (Rattus norvegicus, UniProt P62813+P63079, F314S); experiment: I GABA enhancement by VA, two-microelectrode voltage clamp in Xenopus oocytes; type: cell-based
From the text: (§1) […]. […] Concentration‐response curves were generated, and the data were fitted by non‐linear regression analysis using ORIGIN software (OriginLab Corporation, Northampton, MA, USA). Data were fitted to the Hill equation: y=min+max−min*x^n/k^nH+x^nH k corresponds to the EC50 value; x‐values are logs of concentration, and n H is the Hill coefficient. Each data point represents the mean ± SEM from ≥3 oocytes and two oocyte batches.
(§2) Follicle membranes covering oocytes were enzymatically digested with 2 mg·mL^−1 collagenase (type 1A). Mutations β3T262A, β3T262S, β3N265S, β3T266A, β3R269A, β3M286A, β3M286W and β3F289S in the β3‐subunit and α1I227A, α1L231A, α1M235A, α1M235W and α1L268A in the α1 subunit were introduced by site‐directed mutagenesis using the QuikChange mutagenesis kit (Agilent Technologies, Vienna, Austria). The coding regions of plasmids were sequenced before experimental use. After cDNA linearization, capped cRNA transcripts were produced using the mMESSAGE mMACHINE® T7 transcription kit (Life Technologies). Capped transcripts were polyadenylated using yeast poly(A)polymerase, diluted in nuclease‐free water and stored before injection at −80°C.
(§3) One day after isolation, the oocytes were injected with about 10–50 nL of nuclease‐free water containing the different rat cRNAs (100–2000 ng·μL^−1 per subunit). For expression of wild‐type α1β3γ2S and mutant receptors, cRNAs were mixed in a ratio of 1:1:10 (Boileau et al., 2002). Electrophysiological experiments were performed using the two‐microelectrode voltage clamp technique at a holding potential of −70 mV making use of a TURBO TEC 01C amplifier (NPI Electronic, Tamm, Germany) and an Axon Digidata 1322A interface (Molecular Devices, Sunnyvale, CA, USA). Data acquisition was carried out using PCLAMP v.9.2 (Molecular Devices, Sunnyvale, CA). The bath solution contained 90 mM NaCl, 1 mM KCl, 1 mM MgCl2, 1 mM CaCl2 and 5 mM HEPES (adjusted to pH 7.4 using 1 M NaOH). Microelectrodes were filled with 2 M KCl and had resistances between 1 and 3 MΩ (Khom et al., 2006).
(§4) Drug or control solutions were applied by means of a TECAN Miniprep 60 permitting automation of the experiments. […] […]. Oocytes with maximal current amplitudes >5 μA were discarded to exclude voltage‐clamp errors (Khom et al., 2006).

[2] = biological target: α1L268Aβ3γ2S GABAA receptor (Rattus norvegicus, UniProt P62813+P63079, L295A); experiment: as above; type: cell-based
From the text: as §1, §2, §3, §4

[3] = biological target: α1I227Aβ3γ2S GABAA receptor (Rattus norvegicus, UniProt P62813+P63079, I254A); experiment: as above; type: cell-based
From the text: as §1, §2, §3, §4

[4] = biological target: α1M235Aβ3γ2S GABAA receptor (Rattus norvegicus, UniProt P62813+P63079, M262A); experiment: as above; type: cell-based
From the text: as §1, §2, §3, §4

[5] = biological target: α1β3N265Sγ2S GABAA receptor (Rattus norvegicus, UniProt P62813+P63079, N290S); experiment: as above; type: cell-based
From the text: as §1, §2, §3, §4

[6] = biological target: α1L231Aβ3γ2S GABAA receptor (Rattus norvegicus, UniProt P62813+P63079, L258A); experiment: as above; type: cell-based
From the text: as §1, §2, §3, §4

α1β3γ2S GABAA receptor = α1β3γ2S GABAA receptor (Rattus norvegicus, UniProt P62813+P63079); experiment: as above; type: cell-based
From the text: as §1, §2, §3, §4

[7] = biological target: α1M235Wβ3γ2S GABAA receptor (Rattus norvegicus, UniProt P62813+P63079, M262W); experiment: as above; type: cell-based
From the text: as §1, §2, §3, §4

[8] = biological target: α1β3R269Aγ2S GABAA receptor (Rattus norvegicus, UniProt P62813+P63079, R294A); experiment: as above; type: cell-based
From the text: as §1, §2, §3, §4

[9] = biological target: α1β3M286Wγ2S GABAA receptor (Rattus norvegicus, UniProt P62813+P63079, M311W); experiment: as above; type: cell-based
From the text: as §1, §2, §3, §4

[10] = biological target: α1β3T262Aγ2S GABAA receptor (Rattus norvegicus, UniProt P62813+P63079, T287A); experiment: as above; type: cell-based
From the text: as §1, §2, §3, §4

[11] = biological target: α1β3T262Sγ2S GABAA receptor (Rattus norvegicus, UniProt P62813+P63079, T287S); experiment: as above; type: cell-based
From the text: as §1, §2, §3, §4

[12] = biological target: α1β3M286Aγ2S GABAA receptor (Rattus norvegicus, UniProt P62813+P63079, M311A); experiment: as above; type: cell-based
From the text: as §1, §2, §3, §4

[13] = biological target: α1β3T266Aγ2S GABAA receptor (Rattus norvegicus, UniProt P62813+P63079, T291A); experiment: as above; type: cell-based
From the text: as §1, §2, §3, §4

[14] = read-out: Emax of I GABA enhancement

Chain of α1M235Aβ3γ2S GABAA receptor (P62813 28-455 M262A): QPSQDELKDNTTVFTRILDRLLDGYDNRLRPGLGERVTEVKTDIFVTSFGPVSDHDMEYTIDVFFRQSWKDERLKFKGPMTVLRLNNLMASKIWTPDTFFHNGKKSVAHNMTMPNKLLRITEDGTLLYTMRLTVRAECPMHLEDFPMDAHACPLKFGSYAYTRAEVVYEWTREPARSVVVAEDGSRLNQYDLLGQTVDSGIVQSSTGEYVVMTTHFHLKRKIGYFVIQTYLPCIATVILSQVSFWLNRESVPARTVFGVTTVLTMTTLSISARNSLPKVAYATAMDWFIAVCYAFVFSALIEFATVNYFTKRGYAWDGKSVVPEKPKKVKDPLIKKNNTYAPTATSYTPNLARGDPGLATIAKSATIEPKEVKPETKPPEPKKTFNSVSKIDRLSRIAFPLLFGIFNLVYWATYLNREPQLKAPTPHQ
Chain of α1M235Aβ3γ2S GABAA receptor (P63079 26-473): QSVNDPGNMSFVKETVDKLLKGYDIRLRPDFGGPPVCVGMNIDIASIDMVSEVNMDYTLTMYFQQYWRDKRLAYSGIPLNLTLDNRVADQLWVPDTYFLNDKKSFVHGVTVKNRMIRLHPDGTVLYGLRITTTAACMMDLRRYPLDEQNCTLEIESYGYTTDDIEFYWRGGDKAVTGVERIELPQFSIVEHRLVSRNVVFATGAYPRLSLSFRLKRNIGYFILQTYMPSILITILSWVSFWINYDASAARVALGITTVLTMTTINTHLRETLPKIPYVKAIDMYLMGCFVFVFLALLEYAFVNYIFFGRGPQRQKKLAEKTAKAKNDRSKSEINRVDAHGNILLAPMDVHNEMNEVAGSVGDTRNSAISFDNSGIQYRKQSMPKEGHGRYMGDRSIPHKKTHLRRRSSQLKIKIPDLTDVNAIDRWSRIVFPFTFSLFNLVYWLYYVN
Chain of α1M235Aβ3γ2S GABAA receptor (P18508 39-466 partner): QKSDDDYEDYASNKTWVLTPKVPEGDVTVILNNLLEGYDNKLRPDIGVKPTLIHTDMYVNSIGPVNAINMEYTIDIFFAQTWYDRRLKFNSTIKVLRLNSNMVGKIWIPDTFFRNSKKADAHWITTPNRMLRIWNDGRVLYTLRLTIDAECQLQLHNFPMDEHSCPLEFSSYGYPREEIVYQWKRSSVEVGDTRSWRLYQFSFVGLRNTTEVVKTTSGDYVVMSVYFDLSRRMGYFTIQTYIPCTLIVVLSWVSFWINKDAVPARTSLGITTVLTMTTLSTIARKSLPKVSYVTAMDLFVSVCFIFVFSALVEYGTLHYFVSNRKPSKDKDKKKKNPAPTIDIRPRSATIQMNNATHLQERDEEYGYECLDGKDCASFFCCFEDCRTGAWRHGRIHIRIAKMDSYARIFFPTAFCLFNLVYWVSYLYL
Chain of α1L231Aβ3γ2S GABAA receptor (P62813 28-455 L258A): as the sequence (P62813 28-455 M262A) above, with L231A, A235M counted along it
Chain of α1L231Aβ3γ2S GABAA receptor (P63079 26-473): as the sequence (P63079 26-473) above
Chain of α1L231Aβ3γ2S GABAA receptor (P18508 39-466 partner): as the sequence (P18508 39-466 partner) above
Chain of α1β3T262Sγ2S GABAA receptor (P62813 28-455, stated change not applied): as the sequence (P62813 28-455 M262A) above, with A235M counted along it
Chain of α1β3T262Sγ2S GABAA receptor (P63079 26-473 T287S): as the sequence (P63079 26-473) above, with T262S counted along it
Chain of α1β3T262Sγ2S GABAA receptor (P18508 39-466 partner): as the sequence (P18508 39-466 partner) above

## CC1=C2[C@H](/C=C(\C)C(=O)O)CC[C@@H](C)[C@H]2CC1 [VA, valerenic acid]
GABAA receptors
  concentration at which VA directly activates GABAA receptors: ≥ 30 µM
  concentration at which VA inhibits GABAA receptors: ≥ 100 µM
β1‐containing channels
  effects on β1‐containing channels: negligible effects
[1]
  EC50: 181 ± 21.6 µM
[1]; [14]
  Emax: 222 ± 12%
[1]; α1β3F289Sγ2S versus α1β3γ2S
  rightward shift of VA's potency versus wild type: ninefold
[1]; α1β3F289Sγ2S, GABA EC3–7, mean ± SEM
  n H (Hill coefficient, I GABA enhancement): 1.20 ± 0.07
[2]
  EC50: 19.9 ± 5.6 µM
[2]; [14]
  Emax: 582 ± 80%
[2]; α1L268Aβ3γ2S, GABA EC3–7, mean ± SEM
  n H (Hill coefficient, I GABA enhancement): 1.06 ± 0.13
[3]
  EC50: 40.8 ± 8.4 µM
[3]; [14]
  Emax: 776 ± 60%
[3]; α1I227Aβ3γ2S, GABA EC3–7, mean ± SEM
  n H (Hill coefficient, I GABA enhancement): 1.13 ± 0.08
[4]
  EC50: 21.1 ± 2.8 µM
[4]; [14]
  Emax: 546 ± 28%
[4]; α1M235Aβ3γ2S, GABA EC3–7, mean ± SEM
  n H (Hill coefficient, I GABA enhancement): 1.19 ± 0.08
[5]
  EC50: 143 ± 67.5 µM
[5]; [14]
  Emax: 134 ± 32%
[5]; α1β3N265Sγ2S versus α1β3γ2S
  reduction of efficacy of IGABA enhancement versus wild type: approximately fivefold reduced
  reduction of potency of IGABA enhancement versus wild type: sevenfold reduction
[5]; α1β3N265Sγ2S, GABA EC3–7, mean ± SEM
  n H (Hill coefficient, I GABA enhancement): 1.33 ± 0.39
[6]
  EC50: 18.8 ± 4.4 µM
[6]; [14]
  Emax: 703 ± 82%
[6]; α1L231Aβ3γ2S, GABA EC3–7, mean ± SEM
  n H (Hill coefficient, I GABA enhancement): 1.37 ± 0.18
α1β3γ2S GABAA receptor
  EC50: 20.2 ± 5.2 µM
α1β3γ2S GABAA receptor; [14]
  Emax: 632 ± 88%
α1β3γ2S GABAA receptor; α1β3γ2S, GABA EC3–7, mean ± SEM
  n H (Hill coefficient, I GABA enhancement): 1.50 ± 0.29
[7]
  EC50: 24.3 ± 7.7 µM
[7]; [14]
  Emax: 193 ± 16%
[7]; α1M235Wβ3γ2S, GABA EC3–7, mean ± SEM
  n H (Hill coefficient, I GABA enhancement): 1.37 ± 0.34
[8]
  EC50: 84.1 ± 14.7 µM
[8]; [14]
  Emax: 259 ± 22%
[8]; α1β3R269Aγ2S, GABA EC3–7, mean ± SEM
  n H (Hill coefficient, I GABA enhancement): 1.63 ± 0.19
[8]; β3R269 mutated to alanine versus wild type
  reduction of efficacy of I GABA enhancement versus wild type: approximately 50%
[9]; [14]
  Emax: 67 ± 35%
[9]; α1β3M286Wγ2S, GABA EC3–7
  modulatory effects on I GABA (in words): did not display any significant modulatory effects
[10]
  EC50: 2500 ± 800 nM
[10]; [14]
  Emax: 573 ± 96%
[10]; α1β3T262Aγ2S, GABA EC3–7, mean ± SEM
  n H (Hill coefficient, I GABA enhancement): 1.00 ± 0.16
[11]
  EC50: 3.4 ± 0.7 µM
[11]; [14]
  Emax: 578 ± 42%
[11]; α1β3T262Sγ2S, GABA EC3–7, mean ± SEM
  n H (Hill coefficient, I GABA enhancement): 0.85 ± 0.15
[12]
  EC50: 60.1 ± 18.5 µM
[12]; [14]
  Emax: 283 ± 52%
[12]; α1β3M286Aγ2S, GABA EC3–7, mean ± SEM
  n H (Hill coefficient, I GABA enhancement): 1.47 ± 0.21
[13]
  EC50: 7.5 ± 1.5 µM
[13]; [14]
  Emax: 666 ± 55%
[13]; α1β3T266Aγ2S, GABA EC3–7, mean ± SEM
  n H (Hill coefficient, I GABA enhancement): 1.26 ± 0.1
